Test results as given in ChEMBL document CHEMBL4385652, “Discovery of a novel orally active TRPV4 inhibitor: Part 1. Optimization from an HTS hit” (Bioorg Med Chem, 2019).

Columns and labels:
[1] = physchem; details: 1-octanol/phosphate buffer, pH 7.4
[2] = in vitro; details: human, pooled liver microsomes
[3] = in vitro; details: rat, pooled liver microsomes

Compound `COc1cc(OC)cc(C(=O)Nc2nc(C3CC3)c(N3CCN(C)CC3)s2)c1` has a logD [1] of 4.

`COc1cc(OC)cc(C(=O)Nc2nc(-c3cccnc3)c(N3CCN(C)CC3)s2)c1` gave a logD [1] of 4.1.

With `COc1cc(OC)cc(C(=O)Nc2nc(C3CCC3)c(N3CCN(C)CC3)s2)c1` the logD [1] was 4.6.

`COc1cc(OC)cc(C(=O)Nc2nc(-c3ccccc3)c(CCCN3CCN(C)CC3)s2)c1` gave a logD [1] of 4.1.

`COc1cc(OC)cc(C(=O)Nc2nc(-c3ccncc3)c(N3CCN(C)CC3)s2)c1` gave a logD [1] of 4.1.

For `Cc1c(C(=O)Nc2nc(C3CCC3)c(CCN3CCCCC3)s2)cnn1-c1ccc(F)cc1`, the logD [1] was 4.1, the CLint scaled at 0.75 h, 0.2 µM [2] was 527 mL/min/kg and the CLint scaled at 0.75 h, 0.2 µM [3] was greater than 1000 mL/min/kg.

`Cc1c(C(=O)Nc2nc(C3CCC3)c(N3CCN(C)CC3)s2)cnn1-c1ccc(F)cc1` gave a logD [1] of 4.8.

With `COc1cc(OC)cc(C(=O)Nc2nc(-c3ccccc3)c(CN3CCCCC3)s2)c1` the logD [1] was 4.9.

In the case of `CN1CCN(c2sc(NC(=O)c3cc(-c4ccccc4)n(C)n3)nc2C2CCC2)CC1`, the logD [1] is reported as 4.9.

For `Cc1nn(-c2ccc(F)cn2)cc1C(=O)Nc1nc(C2CCC2)c(CCN2CCCCC2)s1`, the logD [1] was 4.5, the CLint scaled at 0.75 h, 0.2 µM [2] was 120 mL/min/kg and the CLint scaled at 0.75 h, 0.2 µM [3] was 798 mL/min/kg.

For `COc1cc(OC)cc(C(=O)Nc2nc(-c3ccccc3)c(CCCN3CCOCC3)s2)c1`, the logD [1] was 4.7.

With `Cc1c(C(=O)Nc2nc(C3CCC3)c(N3CCN(C)CC3)s2)cnn1-c1ccc(C#N)cc1` the logD [1] was 4.

For `Cc1c(C(=O)Nc2nc(C3CCC3)c(N3CCN(C)CC3)s2)cnn1C1CCC(F)(F)CC1`, the logD [1] was 4.3.

Compound `COc1cc(OC)cc(C(=O)Nc2nc(-c3ccccn3)c(N3CCN(C)CC3)s2)c1` has a logD [1] of 3.7.

With `COc1cc(OC)cc(C(=O)Nc2nc(-c3ccccc3)c(C3CCN(C)CC3)s2)c1` the logD [1] was 3.6.

`COc1cc(OC)cc(C(=O)Nc2nc(-c3ccccc3)c(CCCN(C)C)s2)c1` gave a logD [1] of 3.5.

With `COc1cc(OC)cc(C(=O)Nc2nc(-c3ccccc3)c(CCCN3CCCCC3)s2)c1` the logD [1] was 4.1.
